Experimental findings from PubChem BioAssay AID1996 are described below.

SMILES strings stand for the structures. Values after ≈ are worked out from the molar mass of the structure shown. Where only a bound is given, the exact number is not on record here.

For this data set the following is noted: buffer; pH 7.4; 200.0 µM.
As for `COc1ccc(CCNC(=O)c2ccc(C)s2)cc1OC`, the solubility (kinetic) – broadly, solubility judged after dilution from a stock solution rather than from solid – is above 45.8 µg/mL.

In the case of `CCc1ccc(NC(=S)Nc2ccc3[nH]c(=O)[nH]c3c2)cc1`, the kinetic solubility came out at 13.5 µg/mL (≈ 43.2 µM).

`Cc1ccc(S(=O)(=O)Nc2cccc3ncccc23)cc1` had a solubility (kinetic) of 31.1 µg/mL (≈ 104 µM).

`Cn1c(=O)n(C)c2cc(S(=O)(=O)Nc3ccc(F)cc3)ccc21`: the solubility (kinetic) turned out to be 33.5 µg/mL (≈ 99.9 µM).

`CC1CC(=O)Nc2ccccc2N1C(=O)CN1C(=O)C(=O)N(C)C1=O` (stereo not drawn): the solubility (kinetic) was above 51.6 µg/mL.

`CCOc1ccc(-n2cc(-c3ccccc3)c3c(=S)nc[nH]c32)cc1` showed a kinetic solubility of 0.3 µg/mL (≈ 0.863 µM).

Molecule `COc1ccc(Cl)cc1NC(=O)COC(=O)C1CC(=O)N(Cc2ccccc2)C1` (stereo not drawn) returned a kinetic solubility of 57.4 µg/mL (≈ 138 µM).

Regarding `Cc1ccc(NC2=NC(c3ccc(F)cc3)n3c(nc(C)cc3=O)N2)cc1` (stereo not drawn), the solubility (kinetic) is 5 µg/mL (≈ 13.8 µM).

As for `Cc1ccc(C)c2c1c1ccccc1n2C`, the kinetic solubility was determined as 1.1 µg/mL (≈ 5.26 µM).

In turn, `Cc1cc(C)nc(SCCC(=O)Nc2ccc(F)cc2)n1` returned a kinetic solubility above 45.8 µg/mL.

As to `NC(=O)CN1C(=O)NC2(CCCc3ccccc32)C1=O` (stereo not drawn), the kinetic solubility is above 41 µg/mL.

For the molecule `O=C(COC(=O)c1cc[n+]([O-])cc1)Nc1ccc(Cl)c(C(F)(F)F)c1`, the kinetic solubility is above 56.2 µg/mL.

`CC(=O)c1ccc(C(=O)N2CCCC(Nc3ccccc3)C2)s1` (stereo not drawn) gave a kinetic solubility of 41.2 µg/mL (≈ 125 µM).

The molecule `COc1cc(-c2ccc(NC(C)=O)c(OC)c2)ccc1NC(C)=O` returned a solubility (kinetic) of 10.1 µg/mL (≈ 30.8 µM).

On to `CC(C)(C)c1ccc(/C=C(\C#N)C(=O)Nc2ccccn2)cc1`, for which the kinetic solubility turned out to be 0.6 µg/mL (≈ 1.96 µM).

For `COc1ccc(/C=C/C(=O)NC(=S)NCc2ccccc2)cc1OC`, the solubility (kinetic) turned out to be 2.4 µg/mL (≈ 6.73 µM).

As for `COc1ccc(N)cc1S(=O)(=O)Nc1ccccc1Cl`, the kinetic solubility was above 46.9 µg/mL.

Molecule `Cc1ccc(S(=O)(=O)NC(C)C(=O)NC2CC2)cc1` (stereo not drawn) came in with a kinetic solubility of 41 µg/mL (≈ 145 µM).

The molecule `CN(C)S(=O)(=O)N1CCC(CO)(CCc2ccccc2)CC1` registered a solubility (kinetic) above 49 µg/mL.

Take `CN(C(=O)C1CCCCN1S(=O)(=O)c1ccccc1)c1ccccc1` (stereo not drawn): the solubility (kinetic) was above 53.8 µg/mL.

With `COc1ccc(S(=O)(=O)N(C)CC(=O)NCc2ccccn2)cc1`, the solubility (kinetic) came to 37.6 µg/mL (≈ 108 µM).

In turn, `CCn1c(CNC(=O)c2ccccc2F)cc2cc(C)ccc21` yielded a kinetic solubility of 0.8 µg/mL (≈ 2.58 µM).

Turning to `Cc1ccc(C(=O)NCC(=O)OCC(=O)c2c(N)n(C)c(=O)n(C)c2=O)cc1C`, the kinetic solubility was 7.3 µg/mL (≈ 18.1 µM).

Turning to `CCCN1CCN(CC(=O)Nc2nc3ccccc3s2)CC1`, the kinetic solubility came out at 0.6 µg/mL (≈ 1.88 µM).

For `CC(=O)Nc1cccc(C(=O)OCN2C(=O)c3ccccc3C2=O)c1`, the solubility (kinetic) turned out to be 9.5 µg/mL (≈ 28.1 µM).

The molecule `COc1cccc(OC)c1C(=O)NCCc1ccccc1` had a solubility (kinetic) above 42.8 µg/mL.

In turn, `CC(=Nc1ccccc1O)c1sc2ccccc2c1O` had a kinetic solubility below 0.6 µg/mL.

Molecule `CCc1nnc(NC(=O)CN2C(=O)NC3(CC(C)CC(C)(C)C3)C2=O)s1` (stereo not drawn) showed a solubility (kinetic) above 56.9 µg/mL.

As to `Cc1nnc(SCC(=O)c2c(N)n(C3CC3)c(=O)[nH]c2=O)n1C`, the solubility (kinetic) was above 50.5 µg/mL.

`O=C(Nc1ccc(Cl)c(Cl)c1)c1cccnc1` returned a solubility (kinetic) above 40.1 µg/mL.

Molecule `COCC(=O)N1CCCC(CNS(=O)(=O)c2ccc(OC)cc2)C1` (stereo not drawn) yielded a kinetic solubility above 53.5 µg/mL.

Molecule `CCc1oc(C(=O)OC)cc1CSC(=N)N.Cl` displayed a kinetic solubility of 41.4 µg/mL.

In the case of `Cc1nc(-c2noc(-c3ccccc3Cl)n2)c(C(F)(F)F)o1`, the kinetic solubility is 0.6 µg/mL (≈ 1.82 µM).

As for `COc1ccc(NC(=O)c2cc(F)c(F)cc2Cl)cc1Cl`, the solubility (kinetic) was below 0.7 µg/mL.

As to `COc1ccc(CCNC(=O)COC(=O)/C=C/c2ccc3c(c2)OCO3)cc1OC`, the solubility (kinetic) turned out to be 12.7 µg/mL (≈ 30.7 µM).

On to `c1ccc2nc3c(nc2c1)CCCC3`, for which the solubility (kinetic) was above 27.6 µg/mL.

Consider `COc1ccccc1N1CCN(CCc2ccccc2)CC1`, for which the kinetic solubility is 37.5 µg/mL (≈ 127 µM).

`Cc1ccccc1OCCCCCCN1CCNCC1.O=C(O)C(=O)O` returned a kinetic solubility of 49.5 µg/mL.

The molecule `Cc1c(C(=O)NC2CC2)oc2ccccc12` had a kinetic solubility above 32.3 µg/mL.

The molecule `O=C(NCCCNC(=O)c1ccccn1)c1ccc(F)cc1` yielded a solubility (kinetic) above 45.2 µg/mL.

As for `COc1ccccc1NC(=S)N(C(C)C)C(C)c1ccccn1` (stereo not drawn), the solubility (kinetic) was determined as 37.8 µg/mL (≈ 115 µM).

With `CNCCCC12CCC(c3ccccc31)c1ccccc12`, the solubility (kinetic) was found to be 38.6 µg/mL (≈ 139 µM).

`COc1cc(/C=C2\N=C(C)OC2=O)cc(OC)c1OC` returned a solubility (kinetic) of 25.3 µg/mL (≈ 91.2 µM).

The molecule `CCNC(=S)Nc1cc2oc3ccccc3c2cc1OC` showed a solubility (kinetic) of 3.2 µg/mL (≈ 10.7 µM).

Turning to `Cc1cc(C)c(C#N)c(SCc2ccccc2F)n1`, the kinetic solubility was below 0.3 µg/mL.

`Cc1ccc(CN2CCN(C(=O)c3cccc4ccccc34)CC2)cc1.O=C(O)C(=O)O` returned a kinetic solubility of 59.6 µg/mL.

The molecule `O=C(CN1C(=O)NC2(CCCC2)C1=O)NCc1ccc(F)cc1` returned a solubility (kinetic) above 47.9 µg/mL.

The molecule `O=Cc1ccc(-n2cc(C=O)c3ccccc32)cc1` registered a kinetic solubility of 2.4 µg/mL (≈ 9.63 µM).

`CCCn1c(=O)c(C(=O)NC(C)c2ccccc2)c(O)c2ccccc21` (stereo not drawn) gave a solubility (kinetic) of 1.3 µg/mL (≈ 3.71 µM).

For the molecule `Cc1ccc(NC(=O)CN(C)C(=O)COc2cccc3cccnc23)cc1`, the kinetic solubility came out at 52.4 µg/mL (≈ 144 µM).

The molecule `CCOC(=O)C1CCN(C(=O)c2ccc(OC3CCN(C(=O)COC)CC3)cc2)CC1` yielded a kinetic solubility of 45 µg/mL (≈ 104 µM).

Regarding `c1ccc2cc(CNCc3cccc4ccccc34)ccc2c1`, the kinetic solubility is 4.1 µg/mL (≈ 13.8 µM).

Take `Cc1ccc(C(=O)N2CCN=C2SCc2ccc([N+](=O)[O-])cc2)cc1C`: the kinetic solubility was found to be 0.3 µg/mL (≈ 0.812 µM).

In the case of `CC1(C2CC2)NC(=O)N(CC(=O)N2CCN(c3cccc(C(F)(F)F)c3)CC2)C1=O` (stereo not drawn), the solubility (kinetic) worked out at 21.6 µg/mL (≈ 50.9 µM).

For `CCn1c(C)c(C)c2cc(C(=O)N3CCCC3)ccc21`, the solubility (kinetic) was above 40.6 µg/mL.

Consider `Cc1cc(C)cc(C(=O)OCC(=O)Nc2ncccn2)c1`, for which the kinetic solubility stood at 37.4 µg/mL (≈ 131 µM).

Regarding `CCN1CCN(C(=O)c2cc3cc(F)ccc3[nH]2)CC1`, the solubility (kinetic) is 36.4 µg/mL (≈ 132 µM).

In turn, `Cc1ccc(NC(=O)CCSCCc2ccccn2)cc1` had a kinetic solubility above 45.1 µg/mL.

`CC(NC(=O)c1ccccc1N)c1ccccc1` (stereo not drawn): the kinetic solubility was above 36 µg/mL.

In turn, `CC(=O)N1CCN(c2ccc(S(=O)(=O)N3CCCCC3)cc2[N+](=O)[O-])CC1` registered a solubility (kinetic) above 59.5 µg/mL.

As to `Cc1ccc(N2CC(=O)N(CC(=O)O)C2=O)cc1`, the kinetic solubility was above 37.2 µg/mL.

In turn, `O=C(O)CCNC(=S)Nc1cccc(F)c1` displayed a kinetic solubility above 36.3 µg/mL.

The molecule `COc1ccccc1CNC(=O)CN(C)CC(=O)Nc1ccccc1Br` displayed a solubility (kinetic) above 63 µg/mL.

In turn, `COc1cc(CCN)ccc1O.Cl` showed a kinetic solubility above 30.6 µg/mL.

For the molecule `Cc1c(C(=O)O)oc2ccc(S(=O)(=O)N3CCCC3)cc12`, the kinetic solubility is above 46.4 µg/mL.

`O=C(O)CC1(CC(=O)NCc2ccc(C(F)(F)F)cc2)CCCCC1` showed a solubility (kinetic) above 53.6 µg/mL.

`CC(=O)Cc1nsc(Nc2cccc(C)c2)n1` displayed a solubility (kinetic) of 30.5 µg/mL (≈ 123 µM).

In turn, `Cc1cc(F)ccc1NC(=O)Nc1ccc2c(c1)OCO2` displayed a solubility (kinetic) below 0.3 µg/mL.

Molecule `Cc1[nH]c2ccccc2c1C(=O)C(=O)N(C)C1CCCCC1` came in with a solubility (kinetic) above 44.8 µg/mL.

On to `CC(=O)c1c(C)[nH]c(C(=O)OCC(=O)Nc2ccc3c(c2)OCCO3)c1C`, for which the kinetic solubility is 3.8 µg/mL (≈ 10.2 µM).

In the case of `CCC(=O)N1CCN=C1SCc1cc(C)ccc1C`, the solubility (kinetic) was found to be 35.6 µg/mL (≈ 129 µM).

The molecule `CCCCCCC(O)(CCN1CCCCC1)c1ccccc1.Cl` (stereo not drawn) registered a solubility (kinetic) of 49.3 µg/mL.

For `Cc1ccc(Cn2c(N3CCNCC3)nc3c2c(=O)[nH]c(=O)n3C)cc1`, the kinetic solubility was 51.2 µg/mL (≈ 144 µM).
